Results taken from patent publication US7652021B2, “Compounds useful for DPP-IV enzyme inhibition” (Sanofi-Aventis, priority 2003, dated 2010).
pIC50: −log10 of the molar value. Structures can show the parent of a compound that is named as a salt.

System: not given
Test: not given
Conditions: not given

Structure (SMILES) | melting point [°C]
N#C[C@@H]1CC(F)(F)CN1C(=O)CNC1C2CCC1CN(c1ncccn1)C2 (stereo partly drawn) | 50 to 52
N#C[C@H]1COCN1C(=O)CNC12CC3CC(C1)CC(Nc1ncccn1)(C3)C2 (as salt: hydrochloride) [Example 9, (4S)-3-{N-[3-(pyrimidin-2-ylamino)-1-adamantyl]glycyl}-1,3-oxazolidine-4-carbonitrile] | 205 to 207
N#Cc1ccc(CNC23CC4CC(CC(NCC(=O)N5CC(F)(F)C[C@H]5C#N)(C4)C2)C3)cc1 (as salt: hydrochloride) [Example 27, (2S)-1-(N-{3-[(4-cyanobenzyl)amino]-1-adamantyl}glycyl)-4,4-difluoropyrrolidine-2-carbonitrile] | 226 to 231

Further lines, results first:

melting point [°C] | Structure (SMILES)
> 300 | Cl.Cl.N#C[C@@H]1CC(F)(F)CN1C(=O)CNC1C2CCC1CN(c1ncccn1)C2 (stereo partly drawn)
169 to 172 | CC1(NCC(=O)N2CC(F)(F)C[C@H]2C#N)CC2CCC(C1)N2c1ncccn1.Cl.Cl (stereo partly drawn)
149 to 152 | N#C[C@@H]1CCCN1C(=O)CNC1C2CCC1CN(c1ncccn1)C2 (stereo partly drawn) (as salt: hydrochloride) [Example 40, (2S)-1-[N-(3-pyrimidin-2-yl-3-azabicyclo[3.2.1]oct-8-yl)glycyl]pyrrolidine-2-carbonitrile]

Molecular target: T1, DPP-IV enzyme (solubilized crude extractum from CaCo/Tc-7 cells) (Homo sapiens, UniProt P27487)
T1 construct: solubilized crude extractum from CaCo/Tc-7 cells; endogenous in cells; host or cells: CaCo/Tc-7 cells (solubilized crude extract)
Test: DPP-IV enzyme inhibitory activity, fluorometric H-Gly-Pro-AMC assay
Format: biochemical
Conditions: H-Gly-Pro-AMC substrate 250 μM final; 60 min preincubation at 37° C.; 30 min reaction at 37° C.; Tris-HCl pH=7.5
Experimental: DPP-IV enzyme inhibitory activties of the compounds with the general formula (I) were determined by the following method: […]
Applied Conditions of the Assay:
The reaction of the DPP-IV enzyme and the H-Gly-Pro-AMC substrate is recorded by the liberation of AMC (7-amino-4-methylcoumarin) at 37° C. in 100 mM Tris-HCl, pH=7.5 (assay buffer). Standard curve of AMC is linear up to 31.25 μM concentration, therefore we used the relative fluorescence unit (RFU) of the AMC formed. It is detected using 360 nm excitation and 465 emmission filters (integration time 30 μs, Gain 25, No. of Flashes 50) by Tecan Spectrofluor Plus plate reader. Under these conditions enzyme reaction is linear for at least 30 min, and the enzyme dependence is linear up to 2.5 μg protein (up to 700 RFU). Using 1-0.8 μg of extracted protein Km for H-Gly-Pro-AMC is 50 μM. Higher than 500 μM substrate concentration caused fluorescent detection problems (inner filter effect) that can be solved by dilution of the samples.
The assay is designed to detect as efficiently as possible the active inhibitors using a 60 min preincubation time at 37° C. The assay is conducted by adding 0.8-1 μg protein extract in 10 μl enzyme sulution (using assay buffer: 100 mM Tris-HCl, pH=7.5) to the wells containing the test compounds in 10 μl volume and the 55 μl assay buffer (65 μl assay buffer in the case of controlls). After the preincubation period, the reaction is started by the addition of 25 μlmM H-Gly-Pro-AMC substrate solution (250 μM final concentration). The final test volume is 100 μl and the test solution contains 1% DMSO coming from the test compounds solution. Reaction time is 30 min at 37° C., and the reaction is stopped by adding 300 μl 1M Na-acetate buffer, pH=4.2. The fluorescence (RFU) of AMC formed is detected using 360 nm excitation and 465 emission filters in Tecan spectrofluor Plus plate reader (30 μs integration time, Gain 25 No. of Flashes 50). Inhibition % are calculated using the RFU of control and RFU of blank.

T1 sequence (P27487 whole entry): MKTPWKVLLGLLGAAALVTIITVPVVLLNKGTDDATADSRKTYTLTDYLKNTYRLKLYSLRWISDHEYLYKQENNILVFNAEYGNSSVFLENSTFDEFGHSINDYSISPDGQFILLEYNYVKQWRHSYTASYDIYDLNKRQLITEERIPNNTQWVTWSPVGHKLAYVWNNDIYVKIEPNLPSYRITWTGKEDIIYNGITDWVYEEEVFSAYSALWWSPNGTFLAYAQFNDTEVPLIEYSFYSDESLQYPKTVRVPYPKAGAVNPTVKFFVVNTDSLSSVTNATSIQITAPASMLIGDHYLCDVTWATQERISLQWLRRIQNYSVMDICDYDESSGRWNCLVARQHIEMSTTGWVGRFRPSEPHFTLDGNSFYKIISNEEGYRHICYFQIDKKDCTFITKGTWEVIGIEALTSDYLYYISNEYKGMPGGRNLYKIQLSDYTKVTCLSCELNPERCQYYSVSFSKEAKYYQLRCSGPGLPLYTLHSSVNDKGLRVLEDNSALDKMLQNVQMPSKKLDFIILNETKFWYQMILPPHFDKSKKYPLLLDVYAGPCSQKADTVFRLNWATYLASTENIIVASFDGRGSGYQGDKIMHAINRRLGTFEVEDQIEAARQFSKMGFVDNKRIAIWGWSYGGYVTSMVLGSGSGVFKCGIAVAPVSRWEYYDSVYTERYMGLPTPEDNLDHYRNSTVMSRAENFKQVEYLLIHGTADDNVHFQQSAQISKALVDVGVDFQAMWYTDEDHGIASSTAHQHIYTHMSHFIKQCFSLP

pIC50 | Structure (SMILES)
7.68 | N#C[C@H]1COCN1C(=O)CNC12CC3CC(C1)CC(Nc1ncccn1)(C3)C2 [Example 9, (4S)-3-{N-[3-(pyrimidin-2-ylamino)-1-adamantyl]glycyl}-1,3-oxazolidine-4-carbonitrile]
7.80 | N#Cc1ccc(CNC23CC4CC(CC(NCC(=O)N5CC(F)(F)C[C@H]5C#N)(C4)C2)C3)cc1 [Example 27, (2S)-1-(N-{3-[(4-cyanobenzyl)amino]-1-adamantyl}glycyl)-4,4-difluoropyrrolidine-2-carbonitrile]
7.52 | N#C[C@@H]1CCCN1C(=O)CNC1C2CCC1CN(c1ncccn1)C2 (stereo partly drawn) [Example 40, (2S)-1-[N-(3-pyrimidin-2-yl-3-azabicyclo[3.2.1]oct-8-yl)glycyl]pyrrolidine-2-carbonitrile]
